Earlier results, collected in the CATMoS acute toxicity set (Mansouri et al. 2021).
Several values for one entry are separate records, joined by “and”; a condition that tells them apart may be missing. Equal values may be shown once.

assay: rat acute oral toxicity; conditions: in vivo

Structure (SMILES) | LD50
COP(=S)(OC)SCn1ncccc1=O | 3.5 mg/kg
CCOP(=S)(OCC)SCCS(=O)(=O)CC | 7.5 mg/kg
CCOC(=S)c1ccc2c(c1)OCO2 | 1160 mg/kg
CC(Oc1c(Cl)cccc1Cl)C1=NCCN1 (stereo not given) | 70 mg/kg
C=CC(C)NC(=S)NNC(=S)NC (stereo not given) | 1000 mg/kg
CC(=O)C(/N=N/c1ccc(-c2ccc(/N=N/C(C(C)=O)C(=O)Nc3ccccc3)c(Cl)c2)cc1Cl)C(=O)Nc1ccccc1 (stereo not given) | 2230 mg/kg
CCOP(=S)(OCC)SC1COCCS1 (stereo not given) | 3 mg/kg
CCCCCCCCc1ccc(-c2ccccc2)cc1 | 2400 mg/kg
CCBr | 1350 mg/kg
CC1(C)CCCO1 | 4000 mg/kg
O=C(O)CCCCCC(=O)O | 7000 mg/kg
O=[N+]([O-])O[C@H]1CO[C@H]2[C@@H]1OC[C@H]2O[N+](=O)[O-] | 747 mg/kg
CN1CCC2(C)c3cc(OC(=O)NCCCCCCCCN4CCOCC4)ccc3N(C)C12 (stereo not given) | 23 mg/kg
CC(C)CC(C)CC(CC(C)C)OCCO (stereo not given) | 5650 mg/kg
CCCCCCCCCCCC(=O)OCCSC#N | 500 mg/kg
Cc1c(Cl)c(Br)c(Br)c2[nH]c(C(F)(F)F)nc12 | 23 mg/kg
CC(C(=O)O)c1ccc(-c2ccccc2F)cc1 (stereo not given) | 337 mg/kg
NC1CC1 | 445 mg/kg
CC(=O)CCCO | 6400 mg/kg
Fc1c(Br)c(F)c2nc(C(F)(F)F)[nH]c2c1Br | 7.23 mg/kg
C[N+](C)(C)Cc1ccccc1 | 25 mg/kg
CCCCC(CC)COCCC#N (stereo not given) | 4920 mg/kg
COC(C)CC(CC(OC)OC)OC (stereo not given) | 4090 mg/kg
CCCC=C(CC)C(=O)O | 5660 mg/kg
CCN(CCNS(C)(=O)=O)c1ccc(N)c(C)c1 | 400 mg/kg

Structure (SMILES) | LD50
O=C=NCCCCCCNC(=O)N(CCCCCCN=C=O)C(=O)NCCCCCCN=C=O | 19800 mg/kg
CN1CCN(C2=Cc3ccccc3Oc3ccc(F)cc32)CC1 | 646 mg/kg
O=[N+]([O-])c1nccs1 | 137 mg/kg
CN(C)C(CSS(=O)(=O)c1ccccc1)CSS(=O)(=O)c1ccccc1 | 1100 mg/kg
C=CC(=O)NC(C)(C)CS(=O)(=O)O | 16000 mg/kg
Cn1c(=O)c2c(nc(Cc3ccc(N)cc3)n2C)n(C)c1=O | 383 mg/kg
CCCCCOc1ccc(C2SC(=O)NC2=O)cc1OCC (stereo not given) | 4330 mg/kg
O=C(O)c1ccc(Cl)c([N+](=O)[O-])c1 | 3150 mg/kg
CN(C)C(=O)c1cccc(-c2ccccc2)c1O | 1900 mg/kg
Cc1cccc(N(CCO)CCO)c1 | 3100 mg/kg
C=C(C)C(=O)OCC(CCCC)CCCCCC (stereo not given) | 26000 mg/kg
COCCCOCC(C)OCCCOC(=O)c1ccccc1 (stereo not given) | 5480 mg/kg
CC(C)CCOC(=O)c1ccccc1 | 6330 mg/kg
ClC=C(Cl)c1ccccc1 | 4000 mg/kg
CCOP(=S)(OCC)SC(=CC(=O)OC)C(=O)OC | 80 mg/kg
Fc1ccc([C@@H]2CCNC[C@H]2COc2ccc3c(c2)OCO3)cc1 | 415 mg/kg
CN(C)c1ccc(-c2nc(=O)n(C)nc2-c2ccc(N(C)C)cc2)cc1 | 3000 mg/kg
CCc1c(Cl)ccc(O)c1Cl | 2260 mg/kg
C1CCC(N2CCOCC2)CC1 | 178 mg/kg
CC(CC(=O)O)CC(C)(C)C (stereo not given) | 1160 mg/kg
C=CCSC(=S)SC(Cl)(Cl)Cl | 2180 mg/kg
CCC(=O)O[C@]1(c2ccccc2)CCN(C)C[C@@H]1C | 90 mg/kg
FC(F)(F)c1nc2c(Br)c(Cl)c(Cl)cc2[nH]1 | 2.21 mg/kg
CCCCB(CCCC)CCCC | 1120 mg/kg
O=S(=O)(O)c1c(Cl)c(Cl)c(Cl)c2[nH]c(C(F)(F)F)nc12 | 218 mg/kg

Structure (SMILES) | LD50
CSC(C)=NOC(=O)N(C)SN(C(C)C)P1(=S)OCCCO1 | 600 mg/kg
CC(C)(C)C1CCC(NCCC(c2ccccc2)c2ccccc2)CC1 (stereo not given) | 2550 mg/kg
Nc1ccc2c(O)cc(S(=O)(=O)O)cc2c1 | 11500 mg/kg
COc1cc2nc(N3CCC(N(C)C(=O)c4ccccc4)CC3)nc(N)c2cc1OC | 1000 mg/kg
ClCCCCCCCCC(Cl)(Cl)Cl | 370 mg/kg
CCO[Si](C)(C)c1ccccc1 | 2460 mg/kg
c1ccc2c(CC3=NCCN3)cccc2c1 | 1260 mg/kg
Oc1ccc2ccccc2c1 | 1960 mg/kg and 2120 mg/kg
O=[N+]([O-])c1cccc(C(F)(F)F)c1 | 610 mg/kg
CNc1c(Cl)cc(C(=O)NC2CC2)cc1Cl | 262 mg/kg
CC(C)Cc1ccc(C(C)C(=O)O)cc1 (stereo not given) | 636 mg/kg
FC(F)(F)c1nc2c(Br)cc(Br)cc2[nH]1 | 5.98 mg/kg
COP(=S)(OC)SC1CSC=CO1 (stereo not given) | 100 mg/kg
CCC[N+](=O)[O-] | 455 mg/kg
F[Si](F)(F)c1ccccc1 | 310 mg/kg
C#CCOP(=O)(OCCC)c1ccccc1 (stereo not given) | 362 mg/kg
CC(C)(C)NCC(O)COc1ccccc1OCC1CCCO1 (stereo not given) | 1090 mg/kg
C=CCOC=O | 124 mg/kg
Cc1ccc2c(c1)C(N1CCN(C)CC1)=Nc1ccccc1S2 | 934 mg/kg
CC(C)CCP(=O)(CCC(C)C)CCC(C)C | 2240 mg/kg
CC1OCC2C(CO1)C1(Cl)C(Cl)=C(Cl)C2(Cl)C1(Cl)Cl (stereo not given) | 120 mg/kg
CNC(=O)O[C@@H]1C[C@H](C)CC[C@H]1C(C)C | 250 mg/kg
O=C(O)C1=CC(=CC=[N+]2C(C(=O)O)=Cc3cc(O)c(O)cc32)CC(C(=O)[O-])N1 (stereo not given) | 3140 mg/kg
CC=Cc1cc(OC)c(OC)cc1OC | 1010 mg/kg
CC(=O)C1=C(O)[C@@H]2[C@H]3c4c[nH]c5cccc(c45)C[C@H]3C(C)(C)N2C1=O | 36 mg/kg
